Converted amounts (≈) assume the structure as drawn.
Experiments:
Type in all cases: functional
[1] = tested on: Mycobacterium tuberculosis; test: Antimicrobial activity against Mycobacterium tuberculosis H37Ra assessed as microbial kill activity
[2] = tested on: Mycobacterium tuberculosis; test: Antimicrobial activity against Mycobacterium tuberculosis H37Ra
[3] = tested on: Mycobacterium tuberculosis; test: Antimicrobial activity against Mycobacterium tuberculosis in mouse assessed as microbial kill activity
[4] = tested on: Mycobacterium tuberculosis; test: Antimicrobial activity against Mycobacterium tuberculosis H37Ra assessed as early bactericidal activity

Which results are given for `NNC(=O)c1ccncc1` [ISONIAZID]?
log10CFU/ml [1]: 2.89; MIC [2]: 0.0156 µg/mL (≈ 0.114 µM); log10cfu [3]: 1.3; log10CFU/ml/day [4]: 0.9
